# Assay results: paper PMC5371550, “GABAB receptor attenuation of GABAA currents in neurons of the mammalian central nervous system” (Physiological Reports, 2017)
# Experiments:
# [1] = system: T1, α-subunit containing GABAA receptor (GABAAR) from human amygdala; settings: agonist; -70 mV, pH 7.4, room temperature
# T1 construct: gene GABRA1
# [2] = system: T1, α-subunit containing GABAA receptor (GABAAR) from human amygdala; format: cell-based; settings: antagonist against 50 μmol/L GABA; pH 7.4, room temperature
SMILES,EC50 [1] [µM],IC50 [2] [µM]
NCc1cc(O)no1 [muscimol],45,
CN1CCc2cc3c(cc2[C@H]1[C@@H]1OC(=O)c2c1ccc1c2OCO1)OCO3 [bicuculline],,8
